Laboratory results: patent publication US20110091375A1, “USE OF THE COMBINATION COMPRISING TEMOZOLOMIDE AND TNF-ALPHA FOR TREATING GLIOBLASTOMA” (THE UNIVERSITY OF CHICAGO, priority 2004, published 2011)
Where a SMILES comes first, the peptide text is derived from it. The star is where a group is joined. Cbz = O=C(OCc1ccccc1)*; CH2F = FC*

Experiments:
Format in all cases: cell-based, human
[1] = test system: U87 cells; assay: Flow cytometric analysis of apoptosis (fractional DNA content, annexin V binding)
Protocol: Fractional DNA content: U87 cells (10^5) were plated overnight at 37° C. with 5% CO2. The cells were then treated with TNFα (10 ng/mL) and/or TMZ (100 μM). At 72 h the cells were washed in PBS and fixed in ice-cold 70% (v/v) ethanol. The cells were washed twice and incubated in RNase (1 mg/mL) for 30 m at 37° C., then incubated in propidium iodide (PI) solution (100 ug/mL) for […] at 4° C. Flow cytometric analysis was performed on a FACSort instrument (Becton Dickinson Immunocytometry Systems, San Jose, Calif.), and the data were analyzed using the CellQuest software (Becton Dickinson).
Annexin V binding (van Engeland, M. et al. (1998) Cytometry 31(1):1-9): At 72 h cells were washed in PBS and incubated in the dark for 15 m with binding buffer containing 5 μl of Annexin V-FITC and 5 μl of PI (Annexin V-FITC apoptosis detection kit II). The data was analyzed by Flowjo analysis software (Tree Star Inc., Ashland, Oreg.).
Cells were either un-transfected or co-transfected with pRC-CMV-p65 or pRC-CMV in the presence of a GFP plasmid at a ratio of 4:1. Under these conditions, cells expressing GFP also expressed the co-transfected plasmid (Tang, F. et al. (2002) Mol Cell Biol 22:8571-8579). Cells were then left untreated or treated as described in the figure legends. At 72 h cells were washed in PBS and incubated in the dark for 15 m with binding buffer containing 5 μl of Annexin V-FITC and 5 μl of Propidium iodide (PI). In transfected cells, annexin V binding was assessed in GFP positive cells. Data was analyzed by Flowjo analysis software (Tree Star Inc., Ashland, Oreg., USA) as described in U.S. Provisional Application No. 60/604,251 (Yamini, B. et al. (2004) Cancer Res 64:6381-6384).

[2] = test system: JNK; assay: JNK phosphorylation (activation), Western blot
Protocol: (§1) 20 μg of whole U87 cell (or nuclear) lysate was subjected to sodium dodecyl sulfate (SDS)-polyacrylamide gel electrophoresis (PAGE). Following electro-transfer, Immobilon-P membranes (Millipore Corp. Burlington, Mass., USA.) were probed with primary polyclonal antibody against IκBα, phospho-Ser32-IκBα, SAPK/JNK, phospho-Thr183/Tyr185-SAPK/JNK, p65, phospho-Ser536-p65 (Cell Signaling Technology Inc. Beverly, […]., USA) diluted 1:1000 overnight at 4° C. Anti-rabbit IgG HRP-linked secondary antibody (Cell Signaling Technology) was diluted 1:1000 in blocking buffer and applied for 1 h at room temperature. Immunoreactive bands were detected by SuperSignal enhanced chemiluminescence (ECL) (Pierce, Rockford, Ill., USA) and exposed to Kodak X-Omat film.

[3] = test system: U87 cells; assay: Measurement of superoxide production (hydroethidine oxidation); conditions: P<0.05 vs TNFα+TMZ
Protocol: U87 cells were plated at a density of 10^6 cells in flat-bottom 6-well tissue culture plates, incubated overnight and treated as indicated in the figure legend. Cells were then washed, resuspended in PBS and 1 μL of 10 mM hydroethidine (HE) per mL cell suspension (10 μM final concentration) was added and incubated for 5 m at 37° C. Cells were harvested and analyzed on a flow cytometer (FACSort; BD Biosciences) with excitation at 488 nm and emission collected using a 620-670 nm […] long-pass filter. Data was analyzed by Flowjo software.

[4] = test system: U87 cells; assay: U87 cell viability (Trypan Blue dye exclusion, MTS)
Protocol: Trypan Blue dye exclusion method was employed. 10^4 U87 cells were plated and incubated at 37° C. overnight. Subsequently, the cells were contacted with media containing TNFα (10 ng/mL) and/or TMZ (100 μM), incubated for 3 h, and washed. […] All of the studies were performed in triplicate.

[5] = test system: IκBα; assay: TNFα-induced IκBα degradation and phosphorylation (Western blot / kinase assay); conditions: at 15 m, TNFα with or without TMZ pretreatment
Protocol: Cells were then washed with 10 mL ice-cold PBS, scraped from the dish, and pelleted by centrifugation at 1000 rpm for 5 m at 4° C. Cell pellets were resuspended in 400 μl of ice-cold buffer A (10 mM HEPES, pH 7.9; 10 mM KCl; 0.1 mM EDTA; 1 mM DTT; 0.5 mM phenylmethysulfonylfluoride [PMSF]; 1 μg/mL leupeptin; 5 μg/mL aprotinin) and allowed to swell on ice for 15 m. Following the addition of 25 μl of 10% NP-40, the suspension was vortexed for 10 s and centrifuged at 14,500 rpm for 1 m at 4° C. Nuclei were resuspended in 50 μl of ice-cold buffer B (20 mM HEPES, pH 7.9; […]; 1 mM EDTA; 1 mM DTT; 1 mM PMSF; 25% glycerol; 1 μg/mL leupeptin; 5 μg/mL aprotinin) and incubated on ice for 15 m. The nuclear suspension was then centrifuged at 14,500 rpm for 5 m at 4° C. and the supernatant containing the nuclear proteins was transferred to a clean tube. Protein concentrations for each sample were determined by the Bradford method (Bio-Rad, Richmond, Calif., USA) and were adjusted to 2 μg/μl by the addition of buffer B.
as §1
IκK was immunoprecipitated from treated U87 cell extracts with anti-IKKβ antibody, (Santa Cruz Biotechnology, Santa Cruz, Calif., USA). […] Kinase activity was quantified using a Phosphoimager and Equal protein loading determined by immunoblotting with anti-IκKβ antibody (Upstate USA, Charlottesville, Va., USA). […]

[6] = pretreatment before TMZ and TNFα

CC(=O)N[C@@H](CS)C(=O)O [NAC, N-acetylcystein]
effect on cell death, pretreatment alone ([1]; U87): minimal effects | apoptosis induced by combination TMZ and TNFα, inhibitor pretreatment ([1]; annexin V binding, U87, P<0.01 vs TNFα+TMZ): significantly reversed | reduction of delayed JNK activation induced by combination TMZ and TNFα ([2]; U87, NAC pretreatment): 1.7 fold | transient JNK activation, NAC pretreatment ([2]; U87, TMZ and TNFα): without affecting | increase in O2^.− induced by TMZ and TNFα, NAC pretreatment [3]: significantly inhibited

COC(=O)C[C@H](NC(=O)[C@H](C)NC(=O)[C@@H](NC(=O)OCc1ccccc1)C(C)C)C(=O)CF [zVAD] (Cbz-Val-Ala-Asp(OMe)-CH2F)
cytotoxicity induced by combined treatment with TMZ and TNFα, inhibitor pretreatment [4, 6]: completely reversed | JNK activation induced by TMZ and TNFα, inhibitor pretreatment [2, 6]: did not inhibit

TNFα
effect on U87 cell viability ([4]; 10 ng/mL TNFα and/or 100 μM TMZ): Minimal effects | U87 cell apoptosis (sub-G1 hypodiploid/apoptotic peak) ([1]; fractional DNA content, 72 h, TNFα 10 ng/mL and/or TMZ 100 μM): minimal effect | degradation of IκBα [5]: complete degradation | JNK phosphorylation (activation) ([2]; glioma cells): transiently increased
